Entries after “also recorded” stand apart in the source; their conditions may differ.
What was measured:
Type in all cases: cell-based, mouse
[1] = tested on: Bdnf exon IV, VI, and IX transcripts; test: qRT-PCR of Bdnf exon transcripts in Htt-72Q cortical neurons; details: Htt-72Q-expressing cortical neurons; vs. Htt-72Q plus vehicle
Description: RNA was harvested 5 days later and subjected to qRT-PCR for total Bdnf (coding exon IX) using β-actin and 18S rRNA as reference genes. […] FIG. 3C depicts the schematic of the mouse Bdnf locus and the relative RNA levels of the Bdnf exons. White boxes, non-coding exons; gray box, coding exon. qRT-PCR was performed as in using exon-specific Bdnf primers. […] (FIG. 3G, FIG. 3H) Cortical neurons were co-transduced with lenti viruses expressing Htt and indicated shRNA and processed as in (FIG. 3C). […] (FIG. 3I) Primary cortical neurons from BACHD mice were treated with decitabine (0.2 μM) or vehicle for 3.5 days. qRT-PCR was performed using β-actin as a reference gene. […] Data are presented as mean+SEM.
Mouse primary cortical and striatal neurons from embryonic day (E) 15.5 Swiss Webster mouse fetuses (Taconic) were first plated in the minimal essential medium (MEM) containing 10% FBS, 0.45% glucose, 1 mM sodium pyruvate, 2 mM glutamine, 20 U/ml penicillin and 20 μg/ml streptomycin, for 3 h and then maintained in serum-free Neurobasal medium (Life Technologies) containing NeuroCult™ SM1 neuronal supplement ([…] Technologies), 0.5 mM glutamine and 25 μM glutamate for the first 3 d in a humidified incubator (37° C. in 5% CO2). Half of the medium was replaced with Neurobasal medium with SM1 and 0.5 mM glutamine every 3 days.

[2] = tested on: Htt-72Q-expressing primary striatal neurons; test: Neurofilament (NF) immunofluorescence, neurite degeneration in striatal neurons; details: DIV 4 striatal neurons transduced, fixed seven days later; vs. Htt-72Q (0 μM)
Description: (§1) Mouse primary cortical and striatal neurons from embryonic day (E) 15.5 Swiss Webster mouse fetuses (Taconic) were first plated in the minimal essential medium (MEM) containing 10% FBS, 0.45% glucose, 1 mM sodium pyruvate, 2 mM glutamine, 20 U/ml penicillin and 20 μg/ml streptomycin, for 3 h and then maintained in serum-free Neurobasal medium (Life Technologies) containing NeuroCult™ SM1 neuronal supplement ([…] Technologies), 0.5 mM glutamine and 25 μM glutamate for the first 3 d in a humidified incubator (37° C. in 5% CO2). Half of the medium was replaced with Neurobasal medium with SM1 and 0.5 mM glutamine every 3 days. Primary cortical neurons plated on 96-well flat clear bottom black plates (Corning #3904) at 4×10^4 cells/well were infected with Htt exon1 expression lentivirus (Htt-25Q or Htt-72Q) or control empty vector lentivirus at 5 days in vitro (DIV 5). Primary striatal neurons plated on 96-well plates at 1×10^5 cells/well were infected with Htt exon1 expression lentivirus at DIV 4. Viral copy number was adjusted for transduction of neurons on the basis of titer measured using the Lenti-X qRT-PCR titration kit (Clontech), and equal numbers of viral particles of Htt-25Q and Htt-72Q expressing lentiviruses were used for transduction. […]
(§2) For the measurement of neurofilament (NF) immunofluorescence intensity, cortical and striatal neurons cultured in a 96-well plate were fixed in 4% paraformaldehyde (PFA) in PBS for 20 min nine and seven days after Htt lentiviral infection, respectively, permeabilized with 0.1% Triton X-100 in PBS for 15 min at room temperature, and subjected to indirect immunofluorescence with anti-NF (2H3) primary antibody and Alexa Fluor 568-conjugated goat anti-mouse IgG secondary antibody (Life Technologies). […] Following image background subtraction, the NF immunofluorescence intensity was quantified using an ImageJ-based macro. Image capture and quantification of Htt (EM48) immunofluorescence intensity were performed as described for those of NF. […] About 300 nuclei from three random fields in a well were counted. […]

[3] = tested on: Htt-72Q-expressing primary cortical neurons; test: Neurofilament (NF) immunofluorescence, neurite degeneration in cortical neurons; details: fixed at DIV 14; vs. Htt-72Q (0 μM)
Description: as §1, §2

[4] = tested on: Htt-72Q-expressing primary cortical neurons; test: MTS cell viability assay in Htt-expressing primary cortical neurons; details: for viability of Htt-72Q-expressing neurons (MTS assay): DIV 5 cortical neurons transduced with Htt lentivirus, treated with drug or DMSO (=0 μM), MTS at DIV 14, vs. Htt-72Q (0 μM)
Description: Mouse primary cortical and striatal neurons from embryonic day (E) 15.5 Swiss Webster mouse fetuses (Taconic) were first plated in the minimal essential medium (MEM) containing 10% FBS, 0.45% glucose, 1 mM sodium pyruvate, 2 mM glutamine, 20 U/ml penicillin and 20 μg/ml streptomycin, for 3 h and then maintained in serum-free Neurobasal medium (Life Technologies) containing NeuroCult™ SM1 neuronal supplement ([…] Technologies), 0.5 mM glutamine and 25 μM glutamate for the first 3 d in a humidified incubator (37° C. in 5% CO2). Half of the medium was replaced with Neurobasal medium with SM1 and 0.5 mM glutamine every 3 days. Primary cortical neurons plated on 96-well flat clear bottom black plates (Corning #3904) at 4×10^4 cells/well were infected with Htt exon1 expression lentivirus (Htt-25Q or Htt-72Q) or control empty vector lentivirus at 5 days in vitro (DIV 5). Primary striatal neurons plated on 96-well plates at 1×10^5 cells/well were infected with Htt exon1 expression lentivirus at DIV 4. Viral copy number was adjusted for transduction of neurons on the basis of titer measured using the Lenti-X qRT-PCR titration kit (Clontech), and equal numbers of viral particles of Htt-25Q and Htt-72Q expressing lentiviruses were used for transduction. For the experiments to test effects of DNMT inhibitors, neurons were treated with inhibitors six hours after Htt lentiviral infection. One half of the media was changed every 3 days with media containing new drug. In knockdown experiments in Htt-expressing neurons, primary cortical neurons were cotransduced with Htt-expressing lentivirus and Dnmt shRNA or control shRNA lentivirus at DIV 5. pLKO.1-TRC1-luciferase (Luci) and pLKO.1-TRC2-LacZ were used as control for RNAi with pLKO.1-TRC1-Dnmt3a and pLKO.1-TRC2-Dnmt1, respectively. Lentiviral particles were prepared by transfecting 293LE cells with the lentiviral plasmid of interest along with packaging plasmid psPAX2 and envelope plasmid pCMV-SVG as described previously^86. Four days after transfection, viruses in the conditioned media were collected and purified using Lenti-X Concentrator (Clontech). Primary cortical neurons from BACHD mouse embryos (E15.5) were individually plated into separate wells and treated at DIV 4 with decitabine or vehicle for 3.5 days.

[5] = Htt-72Q cortical neurons, MTS assay (FIG. 1B)

Row | Structure (SMILES) | expression of Bdnf exon IV, VI, and IX transcripts [1] | mutant Htt-induced neurite degeneration (NF immunofluorescence intensity), striatal neurons [2] | Htt-72Q-induced neurite degeneration (NF immunofluorescence intensity), cortical neurons [3] | viability of Htt-72Q-expressing neurons (MTS assay) [4] | concentration giving nearly full protection [4, 5] [µM] | lowest concentration with significant neuroprotection [4, 5] [µM]
1 | Nc1nc(=O)n([C@H]2C[C@H](O)[C@@H](CO)O2)cc1F [FdCyd, 5-fluoro-2′-deoxycytidine] | increased the expression of Bdnf exon IV, VI, and IX transcripts | protected neurons from mutant Htt-induced neurite degeneration | protected neurons from Htt-72Q-induced neurite degeneration | increased the viability of Htt-72Q-expressing neurons |  | 
2 | Nc1ncn([C@H]2C[C@H](O)[C@@H](CO)O2)c(=O)n1 [decitabine, 5-aza-2′-deoxycytidine] | increased the expression of Bdnf exon IV, VI, and IX transcripts | protected neurons from mutant Htt-induced neurite degeneration | blocked Htt-72Q-induced neurite degeneration | increased the viability of Htt-72Q-expressing neurons; also recorded: increased the viability of mutant Htt-expressing neurons | 0.2 | 0.02

Source: patent US10842807B2, “Methods of treating neurodegenerative disorders comprising DNA methyltransferase inhibitors” (Washington University, priority 2016, dated 2020)
